Measured values reported in patent US20250043285A1, “Mammalian ATG8 Proteins and ATG9A Direct Sealing of Autophagosomal Membranes” (UNM Rainforest Innovations, priority 2023, published 2025).
“Also recorded” adds a separate entry of the source.

Key:
[1] = tested on: HeLa cells stably expressing HT-LC3B (LC3B^+ membranes including autophagosomes); assay: HT-LC3B MIL/MPL assay by high content microscopy (autophagic membrane sealing); type: cell-based
Protocol: HCM: MIL/MPL assay for assessment of autophagic membrane sealing. HaloTag-LC3B stable cell lines were seeded in 96 well plate at the density of 8,000 cells/well. After 18-24 h cells were induced for autophagy (EBSS for 90 min) or mitophagy (20 μM CCCP for 6 h). After induction, cells were incubated with Membrane Impermeant Ligand (MIL: Alexa Fluor-660 663Ex/690Em, 1 μM, Promega, G8471) prepared in 1×MAS buffer (220 mM mannitol, 70 mM sucrose, 10 mM KH2PO4, 5 mM MgCl2, 2 mM HEPES, 1 mM EGTA, from Sigma) containing XF-PMP (Agilent; 102504-100, 1.5 nM for Huh7 and 4 nM for HeLa cells) at 37° C. for 15 min. Cells were washed twice with 1×PBS and fixed with 4% paraformaldehyde (PFA, Sigma) in PBS for 5 min at RT. Cells were again washed twice with 1×PBS and incubated with Membrane-Permeant Ligand (MPL: TMR 5 μM, 555Ex/585Em, Promega, G8251) for 30 min at RT. Cells were washed once with 1×PBS and stained with Hoechst 33342 (Thermo Scientific, H3570, 1:1000) for 10 min at RT. Cells were washed twice and plate was scanned by High Content Microscopy (HCM) for automated image acquisition and quantification, iDEV software (Thermo) in 96-well plates^5. To test the role of mATG8s in autophagosome closure, we used the previously described strategy^41 employing stable cell lines expressing HT-LC3B, used to assess autophagosomal closure^41, 42, 45. We adapted this assay for high content microscopy (HCM) to allow unbiased operator-independent image collection, object identification and quantification, as previously established^30, 75 (FIG. 1C). […] The plates were scanned to quantify MPL^+ (sealed) and MIL^+ (unsealed) autophagosomes and any additional LC3B^+ structures, and data (quantitative HCM) presented as the number of MIL^+ or MPL^+ profiles/cell and their ratios (MIL/MPL) (FIG. 1D). MIL^+MPL^+ profiles were also observed but represented a very small fraction (<5%) and were not differentiated in quantifications.

[2] = tested on: Huh7^WT and Huh7^ATG9AKO cells; assay: Western blot of Parkin and COX-II under CCCP-induced mitophagy; type: cell-based; settings: BafA1 100 nM
From the text: 13A. Schematic representation of proximity biotinylation proteomics (process stages) for LC MS/MS identification of APEX2-ATG9A partners in cells subjected to EBSS-induced autophagy and CCCP-induced mitophagy. 13B, List of ATG9A's key ESCRTs interactors and their peptide counts. 13C, HeLa^WT and HeLa^ATG9AKO cell line stably expressing YFP-Parkin were induced for mitophagy by CCCP or Olygomycin A and Antimycin A (OA). HCM was used to quantify mitophagy by determining remaining mtDNA puncta per cell. Blue squares, HeLa^WT stably expressing YFP-Parkin; red squares, HeLa^ATG9AKO stably expressing YFP-Parkin. 13D, HCM images illustrating mtDNA (red mask) in HeLa^WT and HeLa^ATG9AKO cells stably expressing YFP-Parkin. 13E, Western blot analysis of Huh7^WT and Huh7^ATG9AKO cells, under control conditions (full medium) or subjected to CCCP-induced mitophagy. […] 13G, Western blot analysis of LC3B lipidation in control and CCCP-induced mitophagy condition in Huh7^ATG9AWT or Huh7^ATG9AKO. 13H, Quantification of LC3B dots in Huh7^WT and Huh7^ATG9AKO cells under control conditions or subjected to CCCP-induced mitophagy. […] 13J,13K Quantification of p62 and NDP52 levels in control and proteinase K-treated samples. Statistical significance was determined by one-way ANOVA followed by Tukey's multiple comparison test, P<0.01. […]

SMILES: CO/C1=C\C(C)=C\[C@@H](C)[C@@H](O)[C@@H](C)C/C(C)=C/C=C/[C@H](OC)[C@@H]([C@@H](C)[C@@H](O)[C@H](C)[C@@]2(O)C[C@@H](O)[C@H](C)[C@@H](C(C)C)O2)OC1=O [BafA1, Bafilomycin A1]
- MPL^+ (sealed) profiles/cell ([1]; HeLa^HexaKO HT-LC3B cells, starved in EBSS 90 min, 100 nM BafA1): could not be enhanced by BafA1 treatment
- MPL^+ (sealed) profiles/cell ([1]; HeLa^HexaKO, HeLa^LC3TKO and HeLa^GABATKO HT-LC3B cells, EBSS, 100 nM BafA1): no detectable further MPL^+ increase
- MPL^+ (sealed) profiles/cell ([1]; HeLa^WT HT-LC3B cells, starved in EBSS 90 min, 100 nM BafA1, vs EBSS alone): further elevated; also recorded: further increased in the presence of BafA1
- Parkin and COX-II levels (immunoblot) [2]: accumulation of Parkin and COX-II
